Patent publication US9752125B2, “Differentiation of human embryonic stem cells” (priority 2010, dated 2017)

Tested on: human embryonic stem cells line H1
Test: IN Cell Analyzer imaging of PDX1, NKX6.1 and CDX2 expressing cells at stage 4 day 4 (Example 1)
Type: cell-based
Experimental: Treatment 1: DMEM-High glucose+1% B27 for four days (stage 4-basal media-BM), or […].
Parallel populations of Stage 3 cells were also treated with the following protein kinase C activators—phorbol-12-myristate-13-acetate (PMA) at a concentration of 20 nM (Calbiochem #524400), or [(2S, 5S)-(E, E)-8-(5-(4-(Trifluoromethyl)pheny)-2,4-pentadienoylamino)benzolactam] (TPB) at a concentration of 50 nM (Calbiochem #565740), substituted for PDBu in treatment 3 above. At the end of stage 4, day 4, 91% of the cells of the population treated with PMA, and 90% of the cells of the population treated with TPB expressed NKX6.1.

[1] = PKC activator 20 nM in DMEM-High glucose+1% B27+100 ng/ml Noggin+1 μM ALK5 inhibitor II for four days

Row | Molecule | percentage of total population expressing NKX6.1 (TPB 50 nM substituted for PDBu in treatment 3) [%] | percentage of total population expressing NKX6.1 [1]
1 | (2S, 5S)-(E, E)-8-(5-(4-(Trifluoromethyl)phenyl)-2,4-pentadiemoylamino) benzolactam [TPB] | 90 | –
2 | CCCCCCCCCCCCCC(=O)O[C@@H]1[C@@H](C)[C@@]2(O)[C@@H](C=C(CO)C[C@]3(O)C(=O)C(C)=C[C@@H]23)[C@@H]2C(C)(C)[C@]12OC(C)=O [PMA, phorbol-12-myristate-13-acetate] | – | 91%
3 | CCCC(=O)O[C@@H]1[C@@H](C)[C@@]2(O)[C@@H](C=C(CO)C[C@]3(O)C(=O)C(C)=C[C@@H]23)[C@@H]2C(C)(C)[C@]12OC(=O)CCC [PDBu, phorbol-12,13-dibutyrate] | – | 88%±4.2
